From patent publication US20250313563A1, “GLYCOGEN SYNTHASE KINASE 3 INHIBITORS AND USES THEREOF” (The Broad Institute, Inc., priority 2022, published 2025)
Like-named read-outs stand apart in the source and are kept apart here.

Legend:
[1] = biological target: GSK3α (GST-full length GSK3α) (Homo sapiens (Human), UniProt P49840); experiment: GSK3α TR-FRET kinase assay; format: biochemical
Method in brief: (§1)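 In this time-resolved FRET format, kinase reactions contained 200 nM biotinylated, S645-phosphorylated glycogen synthase 631-650 peptide and either isoform-specific ATP (2 μM GSK3b, 4 μM GSK3α) or 1 mM ATP. They were quenched with EDTA after 100 min at ambient temperature. Inhibition curves gave IC50 values.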

[2] = biological target: GSK3b (GST-full length GSK3b) (Homo sapiens (Human), UniProt P49841); experiment: GSK3b TR-FRET kinase assay; format: biochemical
GSK3b (GST-full length GSK3b), sequence (P49841 whole entry): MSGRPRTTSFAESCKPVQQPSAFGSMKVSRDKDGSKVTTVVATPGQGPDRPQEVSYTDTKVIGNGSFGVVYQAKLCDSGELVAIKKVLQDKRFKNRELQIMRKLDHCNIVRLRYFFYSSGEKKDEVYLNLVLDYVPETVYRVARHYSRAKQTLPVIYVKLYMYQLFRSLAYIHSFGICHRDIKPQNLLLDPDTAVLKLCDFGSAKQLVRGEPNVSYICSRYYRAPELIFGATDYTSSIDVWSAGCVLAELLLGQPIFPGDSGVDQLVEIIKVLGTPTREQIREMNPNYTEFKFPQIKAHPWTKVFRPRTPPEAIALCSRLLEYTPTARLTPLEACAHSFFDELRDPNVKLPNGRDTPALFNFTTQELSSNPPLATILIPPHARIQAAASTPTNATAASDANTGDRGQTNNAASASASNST
Method in brief: as §1

[3] = 1 nM GSK3α, 4 μM ATP, 30 minute preincubation, geometric mean, read-out: GSK3-A TR-FRET BIOCHEMICAL (TR-FRET), GMean, IC50
[4] = 1 nM GSK3b, 2 μM ATP, 30 minute preincubation, geometric mean, read-out: GSK3-B TR-FRET BIOCHEMICAL (TR-FRET), GMean, IC50
[5] = read-out: GSK3-A (TR-FRET 1 mM ATP), GMean, IC50, 1 mM ATP, geometric mean
[6] = read-out: GSK3-B (TR-FRET 1 mM ATP), GMean, IC50, 1 mM ATP, geometric mean
[7] = 1 nM GSK3α, 4 μM ATP, 30 minute preincubation, Table 16, read-out: GSK3-A TR-FRET BIOCHEMICAL (TR-FRET)
[8] = 1 nM GSK3b, 2 μM ATP, 30 minute preincubation, Table 16, read-out: GSK3-B TR-FRET BIOCHEMICAL (TR-FRET)

GSK3α (GST-full length GSK3α), sequence (P49840 whole entry, canonical isoform): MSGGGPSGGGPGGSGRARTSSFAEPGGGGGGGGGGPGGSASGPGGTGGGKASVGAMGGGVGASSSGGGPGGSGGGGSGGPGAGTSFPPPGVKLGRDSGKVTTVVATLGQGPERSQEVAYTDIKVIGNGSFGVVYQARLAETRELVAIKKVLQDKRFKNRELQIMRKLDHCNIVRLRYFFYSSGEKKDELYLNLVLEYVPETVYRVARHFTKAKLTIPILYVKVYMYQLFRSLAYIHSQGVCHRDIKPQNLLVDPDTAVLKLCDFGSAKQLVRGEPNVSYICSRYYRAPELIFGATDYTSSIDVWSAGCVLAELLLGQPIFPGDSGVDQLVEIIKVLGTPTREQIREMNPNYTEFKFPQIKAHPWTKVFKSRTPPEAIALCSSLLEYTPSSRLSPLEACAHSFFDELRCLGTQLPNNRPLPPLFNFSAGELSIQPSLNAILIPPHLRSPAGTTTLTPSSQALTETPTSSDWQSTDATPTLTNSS

CC[C@]1(c2cccc(-c3cnn(CCOC)c3)c2)C2=C(CC(C)(C)NC2=O)Nc2n[nH]cc21 [Compound 949105]
IC50 [1, 3]: ≤ 100 nM | IC50 [2, 4]: 100 to 1000 nM

CC[C@@]1(c2cccc(-c3cnn(C(C)(C)C)c3)c2)C2=C(CC(C)(C)NC2=O)Nc2n[nH]cc21 [Compound 949107]
IC50 [1, 3]: > 5000 nM | IC50 [2, 4]: > 5000 nM

CC[C@]1(c2cccc(-c3cc(OC)ncc3F)c2)C2=C(CC(C)(C)NC2=O)Nc2n[nH]cc21 [Compound 949109]
IC50 [1, 3]: ≤ 100 nM | IC50 [2, 4]: 100 to 1000 nM

CCC1(c2cccc(-c3cn(C)nc3C(C)C)c2)C2=C(CC(C)(C)NC2=O)Nc2n[nH]cc21 (stereo not drawn) [Compound 949111]
IC50 [1, 3]: 100 to 1000 nM | IC50 [2, 4]: 1000 to 5000 nM

CC[C@]1(c2cccc(-c3cnn(C(C)(C)C)c3)c2)C2=C(CC(C)(C)NC2=O)Nc2n[nH]cc21 [Compound 949112]
IC50 [1, 3]: ≤ 100 nM | IC50 [1, 5]: > 5000 nM | IC50 [2, 4]: 100 to 1000 nM | IC50 [2, 6]: > 5000 nM

CC[C@]1(c2cccc(OCC(F)F)c2)C2=C(CC(C)(C)CC2=O)Nc2n[nH]cc21 [Compound 949113]
IC50 [1, 7]: 1000 to 5000 nM | IC50 [2, 8]: > 5000 nM

CCC1(c2cccc(-c3cnn(CCOC)c3)c2)C2=C(CC(C)(C)NC2=O)Nc2n[nH]cc21 (stereo not drawn) [Compound 949114]
IC50 [1, 3]: 1000 to 5000 nM | IC50 [2, 4]: > 5000 nM

CCC1(c2cccc(-c3cc(OC)nc4ccccc34)c2)C2=C(CC(C)(C)NC2=O)Nc2n[nH]cc21 (stereo not drawn) [Compound 949116]
IC50 [1, 3]: > 5000 nM | IC50 [2, 4]: > 5000 nM

CC[C@@]1(c2cccc(C(F)(F)F)c2)C2=C(CCN(c3ccc(C)cc3)C2=O)Nc2n[nH]cc21 [Compound 949118]
IC50 [1, 3]: ≤ 100 nM | IC50 [2, 4]: 100 to 1000 nM

CC[C@]1(c2cccc(C(F)(F)F)c2)C2=C(CCN(c3ccc(C)cc3)C2=O)Nc2n[nH]cc21 [Compound 949119]
IC50 [1, 3]: 1000 to 5000 nM | IC50 [2, 4]: > 5000 nM

CCC1(c2cccc(C(F)(F)F)c2)C2=C(CCN(c3cnc(OC)nc3)C2=O)Nc2n[nH]c(C)c21 (stereo not drawn) [Compound 949126]
IC50 [1, 3]: ≤ 100 nM | IC50 [2, 4]: 100 to 1000 nM

CC[C@]1(c2cccc(C(F)(F)F)c2)C2=C(CCN(c3cnc(OC)nc3)C2=O)Nc2n[nH]cc21 [Compound 949127]
IC50 [1, 3]: 1000 to 5000 nM | IC50 [2, 4]: > 5000 nM

CCC1(c2cccc(C(F)(F)F)c2)C2=C(CCN(c3ccccc3C)C2=O)Nc2n[nH]cc21 (stereo not drawn) [Compound 949128]
IC50 [1, 3]: ≤ 100 nM | IC50 [2, 4]: 100 to 1000 nM

CC[C@]1(c2cccc(C(F)(F)F)c2)C2=C(CCN(c3ccccc3C)C2=O)Nc2n[nH]cc21 [Compound 949129]
IC50 [1, 3]: > 5000 nM | IC50 [2, 4]: > 5000 nM

CCC1(c2cccc(C3CN(C(C)=O)C3)c2)C2=C(CC(C)(C)CC2=O)Nc2n[nH]cc21 (stereo not drawn) [Compound 949131]
IC50 [1, 7]: 100 to 1000 nM | IC50 [2, 8]: 1000 to 5000 nM

CC[C@]1(c2cccc(C3CN(C(C)=O)C3)c2)C2=C(CC(C)(C)CC2=O)Nc2n[nH]cc21 [Compound 949132]
IC50 [1, 7]: > 5000 nM | IC50 [2, 8]: > 5000 nM

CCC1(c2cccc(-c3ccnc(C)c3)c2)C2=C(CC(C)(C)NC2=O)Nc2n[nH]c(C(F)F)c21 (stereo not drawn) [Compound 949169]
IC50 [1, 3]: ≤ 100 nM | IC50 [1, 5]: 100 to 1000 nM | IC50 [2, 4]: ≤ 100 nM | IC50 [2, 6]: 1000 to 5000 nM

CCC1(c2cccc(-c3cn(C)nc3C)c2)C2=C(CC(C)(C)NC2=O)Nc2n[nH]c(C(F)F)c21 (stereo not drawn) [Compound 949170]
IC50 [1, 3]: ≤ 100 nM | IC50 [2, 4]: ≤ 100 nM

CCC1(c2cccc(-c3cnn(C)c3)c2)C2=C(CC(C)(C)NC2=O)Nc2n[nH]c(C(F)F)c21 (stereo not drawn) [Compound 949171]
IC50 [1, 3]: ≤ 100 nM | IC50 [1, 5]: ≤ 100 nM | IC50 [2, 4]: ≤ 100 nM | IC50 [2, 6]: 1000 to 5000 nM

CCC1(c2cccc(C(C)C)c2)C2=C(CC(C)(C)NC2=O)Nc2n[nH]c(C)c21 (stereo not drawn) [Compound 949173]
IC50 [1, 3]: ≤ 100 nM | IC50 [2, 4]: ≤ 100 nM

CCC1(c2cccc(-c3cc(C)nnc3C)c2)C2=C(CC(C)(C)NC2=O)Nc2n[nH]c(C(F)(F)F)c21 (stereo not drawn) [Compound 949174]
IC50 [1, 3]: ≤ 100 nM | IC50 [1, 5]: 100 to 1000 nM | IC50 [2, 4]: ≤ 100 nM | IC50 [2, 6]: 100 to 1000 nM

CC[C@]1(c2cccc(S(=O)(=O)CC3CC3)c2)C2=C(CC(C)(C)NC2=O)Nc2n[nH]c(C(F)(F)F)c21 [Compound 949175]
IC50 [1, 3]: ≤ 100 nM | IC50 [1, 5]: ≤ 100 nM | IC50 [2, 4]: ≤ 100 nM | IC50 [2, 6]: ≤ 100 nM

CC[C@]1(c2cccc(S(=O)(=O)C3CC3)c2)C2=C(CC(C)(C)N(C)C2=O)Nc2n[nH]cc21 [Compound 949177]
IC50 [1, 3]: ≤ 100 nM | IC50 [1, 5]: 100 to 1000 nM | IC50 [2, 4]: ≤ 100 nM | IC50 [2, 6]: 1000 to 5000 nM

CC[C@]1(c2cccc(N3CCCCC3)c2)C2=C(CC(C)(C)NC2=O)Nc2n[nH]c(C(F)(F)F)c21 [Compound 949178]
IC50 [1, 3]: 100 to 1000 nM | IC50 [2, 4]: 1000 to 5000 nM
